According to patent publication US8030446B2, “Mutant proline-and-arginine rich peptides and methods for using the same” (Trustees of Dartmouth College, priority 2006, dated 2011):
Where two headings read alike, the source gives them in different places. Marks after values point to notes of the source that are not given here. Ends that are not written are not given here.

Legend:
[1] = biological target: T1, Mammalian (Human) 20s Proteasome (Homo sapiens, UniProt P25788); details: Gaczynska, et al. (2003); cited from earlier work
T1 construct: purchased Boston Biochem (Cambridge, Mass.)

[2] = test system: genes regulating the NF-κB pathway in human umbilical vein endothelial cells (HUVEC); assay: NF-κB pathway-specific gene expression microarray in HUVEC treated with PR peptides; assay type: cell-based; details: for AKT1 gene expression / ATF2 gene expression / CREB1 gene expression / ELK3 gene expression / JNK1 gene expression / MEK4 gene expression / MEKK1 gene expression / MEKK2 gene expression / NF-κB1 gene expression / NF-κB2 gene expression / P38 MAPK gene expression / RANK gene expression / RIP gene expression / TAK1 gene expression / TBK1 gene expression / TRAF6 gene expression: PR peptides 1 μM, 8 hours, relative to untreated controls; for overall inhibitory effect on NF-κB pathway-related gene expression (in words): FIG. 1, averaged % inhibition over 13 down-regulated genes, relative to PR11
Description: Cell Culture. Human umbilical vein endothelial cells (HUVEC, Cambrex Bio Science Walkersville, Inc., East Rutherford, N.J.) were cultured in endothelial cell basal medium-2 supplemented with EGM-2 SINGLEQUOTS (Cambrex Bio Science Walkersville, Inc.) and FBS. Confluent HUVEC, passage 3-5, were starved overnight in medium supplemented with 0.5% FBS, 0.25% BSA and incubated with PR peptides (1 μM) for 8 hours in starvation medium.
Total RNA Extraction and Gene Profiling by Microarray. Total RNA extraction was performed using the RNEASY mini kit protocol (QIAGEN, Valencia, Calif.). The quality and quantity of total RNA was determined using RNA 6000 Nano chips (Agilent Technology, Santa Clara, Calif.).
Gene profiling was performed using pathway-specific gene expression array for NF-κB signaling transduction (HS-016.2, SuperArray Bioscience Corp.). A total of 96 cDNA fragments from genes related to NF-κB mediated signal transduction, including: NF-κB/IκB family, NF-κB responsive genes (adhesion molecules, cytokines), extracellular ligands, transmembrane receptors, adaptor proteins, signal transduction kinases, and transcription factors were printed in tetraspot format on 3.8×4.8 cm nylon array membrane. Total RNA (0.5 μg) was reverse-transcribed into cDNA labeled with biotin-dUTP according to the manufacture's protocol. After overnight hybridization at 60° C., array membranes were treated with alkaline phosphate-conjugated streptavidin followed by chemiluminescent alkaline phosphate substrate CDP-star (Applied Biosystems, Foster City, Calif.) and exposed to X-ray film. The data were extracted from raw images using […] software (SuperArray, Bioscience Corp.). After background subtraction, the level of gene expression was determined as signal intensity units relative to total array intensity signal. Statistical significant altered genes (PR peptides vs. control) at P values <0.05 were analyzed by Student's t-test, 2-tailed distribution. The data were expressed as fold change PR peptides relative to controls (untreated cells kept in similar conditions).

[3] = biological target: T1, Mammalian (Human) 20s Proteasome; assay: Chymotrypsin-like (ChT-L) peptidase activity of 20S proteasome, N-succinyl-LLVY-AMC substrate; assay type: biochemical; details: chymotrypsin-like activity; for IC50: 15-minute pre-incubation, 1 hour at 37° C., pH 7.5, 0.03% SDS, read-out: I50
Description: Determination of Enzymatic Activity. Mammalian (Human) 20s Proteasome was purchased from Boston Biochem (Cambridge, Mass.); substrate, N-succinyl-LLVY-AMC was purchased from SIGMA (St. Louis, Mo.); and negative control, Lactacystin, was purchased from SIGMA. […] Activity was determined by measuring the amount of a fluorescence observed upon release of the MCA group after a 1 hour incubation at 37° C. in 50 mM sodium phosphate buffer at pH 7.5 containing 0.03% SDS. Inhibition by PR-peptide was measured after a 15-minute pre-incubation at 37° C. of each peptide with 20S proteasome, followed by the addition of the substrate and the one hour incubation.

Sequence	IC50 [3] [nM]	AKT1 gene expression ([2]; HUVEC)	ATF2 gene expression ([2]; HUVEC)	CREB1 gene expression ([2]; HUVEC)	ELK3 gene expression ([2]; HUVEC)	JNK1 gene expression ([2]; HUVEC)	MEK4 gene expression ([2]; HUVEC)	MEKK1 gene expression ([2]; HUVEC)	MEKK2 gene expression ([2]; HUVEC)	NF-κB1 gene expression ([2]; HUVEC)	NF-κB2 gene expression ([2]; HUVEC)	P38 MAPK gene expression ([2]; HUVEC)	RANK gene expression ([2]; HUVEC)	RIP gene expression ([2]; HUVEC)	TAK1 gene expression ([2]; HUVEC)	TBK1 gene expression ([2]; HUVEC)	TRAF6 gene expression ([2]; HUVEC)	overall inhibitory effect on NF-κB pathway-related gene expression (in words) [2]	also measured
RRRPRPPY [PR8]																			20S proteasome inhibiting activity (in words) [1]: does not inhibit 20S activity
RRAPRPPYLPR [Peptide A3]	3150	1.7 fold change	−1.3 fold change	−1.3 fold change	1.3* fold change	−2.6 fold change	−2.7* fold change	−1.9 fold change	−2.1* fold change	−2.0 fold change	−1.4 fold change	−1.9* fold change	1.7* fold change	−3.0* fold change	−3.3* fold change	−2.1* fold change	−1.4 fold change	more active than A1-PR11 and A2-PR11	number of significantly reduced genes ([2]; HUVEC, of the 13 down-regulated genes of Tables 5 and 6): 5 genes
KRRPRPPELPR [Peptide K1E8]	6340	0.6 fold change	−2.6^# fold change	−5.0^# fold change	^−1.9^# fold change	−2.2 fold change	−1.9* fold change	−1.4 fold change	−3.0^# fold change	−1.9 fold change	−2.3* fold change	−2.6^# fold change	0.7 fold change	−3.3* fold change	−2.4^# fold change	−3.6^# fold change	−5.5* fold change	higher than that of Glu8 or Ala1Glu8	

The remaining sequences from weak to strong by IC50 [3], led by results:

IC50 [3] [nM]	Sequence	AKT1 gene expression ([2]; HUVEC)	ATF2 gene expression ([2]; HUVEC)	CREB1 gene expression ([2]; HUVEC)	ELK3 gene expression ([2]; HUVEC)	JNK1 gene expression ([2]; HUVEC)	MEK4 gene expression ([2]; HUVEC)	MEKK1 gene expression ([2]; HUVEC)	MEKK2 gene expression ([2]; HUVEC)	NF-κB1 gene expression ([2]; HUVEC)	NF-κB2 gene expression ([2]; HUVEC)	P38 MAPK gene expression ([2]; HUVEC)	RANK gene expression ([2]; HUVEC)	RIP gene expression ([2]; HUVEC)	TAK1 gene expression ([2]; HUVEC)	TBK1 gene expression ([2]; HUVEC)	TRAF6 gene expression ([2]; HUVEC)	overall inhibitory effect on NF-κB pathway-related gene expression (in words) [2]	also measured
2610	RRRPRPPELPRW [Peptide E8W12]	1.8* fold change	−1.8* fold change	−1.5 fold change	1.0 fold change	−1.8 fold change	−2.4* fold change	−1.7 fold change	−1.1 fold change	−1.6 fold change	−1.3 fold change	−1.1 fold change	1.8^# fold change	−1.5 fold change	−1.2 fold change	−1.6* fold change	−1.2 fold change	reduced activity compared with PR11 or Trp12	20S proteasome inhibiting activity (in words) [3]: behaved much the same as the Glu8 mutant
805	RRRPRPPYLPR [PR11, reference compound]	3.0* fold change	−2.1* fold change	−2.1* fold change	1.9* fold change	−6.5^# fold change	−3.1* fold change	−2.9* fold change	−2.6* fold change	−4.1* fold change	−3.3^# fold change	−3.6^# fold change	1.5* fold change	−10.4^# fold change	−9.2^# fold change	−2.8^# fold change	−2.4* fold change		number of genes whose expression was significantly affected ([2]; HUVEC, NF-κB array of 96 genes): 16 genes
